Consider three compounds from paper PMC11638965, “Leveraging Dual-Ligase Recruitment to Enhance Protein Degradation via a Heterotrivalent Proteolysis Targeting Chimera” (Journal of the American Chemical Society, 2024).

One test has as its system RKO WT cells. In words: cells. In kind it is cell-based, human. How it is done:
(§1) RKO WT, VHL KO, CRBN KO and CRBN/VHL dKO cells were cultured in Dulbecco’s modified Eagle’s medium supplemented with 10% FCS and 1% penicillin–streptomycin. RKO CRBN KO and VHL KO were generated previously.[45] RKO CRBN/VHL dKO cells were generated by transiently expressing pSpCas9(BB)-2A-GFP (PX458) (Addgene 48138) loaded with a short guide RNA (sgRNA) targeting VHL (Fwd: […], Rev: […]) in RKO CRBN KO cells. Clones were single cell seeded and checked for VHL and CRBN double deletion via Western blot or PCR on genomic DNA (gDNA).
Cells were seeded in 96-well plates at a cell density of 3750 cells per well and treated for 3 days with DMSO or drug at ten √10 serial diluted concentrations. […] Cell viability was assessed using the CellTiter-Glo assay (CellTiter-Glo Luminescent Cell Viability Assay, Promega G7573) according to manufacturer instructions. Luminescence signal was measured on a Multilabel Plate Reader Platform Victor X3 model 2030 (PerkinElmer). Survival curves and EC50 values were determined using GraphPad Prism v.10.0.3 by fitting a nonlinear regression to the log10-transformed drug concentration and the relative viability after normalization of each data point to the mean luminescence of the lowest drug concentration.

For a further test, the system named is RKO CRBN/VHL dKO cells. In words: Cell viability assay (CellTiter-Glo). It counts as cell-based, human. Particulars: read-out: EC50 RKO CRBN/VHL dKO. How it is done:
as §1
(§2) Cells were seeded in 96-well plates at a cell density of 3750 cells per well and treated for 3 days with DMSO or drug at ten √10 serial diluted concentrations. Starting concentration for all drugs was 10 μM, and each treatment was performed in biological triplicates. Cell viability was assessed using the CellTiter-Glo assay (CellTiter-Glo Luminescent Cell Viability Assay, Promega G7573) according to manufacturer instructions. Luminescence signal was measured on a Multilabel Plate Reader Platform Victor X3 model 2030 (PerkinElmer). Survival curves and EC50 values were determined using GraphPad Prism v.10.0.3 by fitting a nonlinear regression to the log10-transformed drug concentration and the relative viability after normalization of each data point to the mean luminescence of the lowest drug concentration.

In another test the test system is RKO VHL KO cells. In words: Cell viability assay (CellTiter-Glo). It counts as cell-based, human. How it is done: as §1, §2
Another test concerns RKO CRBN KO cells. In words: Cell viability assay (CellTiter-Glo). In kind it is cell-based, human. The protocol:
as §1, §2

A further test deals with BRD4 (Homo sapiens, UniProt O60885). In words: Live cell kinetic HiBiT degradation assay, HiBiT-BRD4 HEK293 cells (parental, CRBN KO, VHL KO). As to conditions: for fold drop in BRD4 degradation potency (Dmax 50) when CRBN recruitment was outcompeted by pomalidomide: 20 μM pomalidomide vs vehicle, HiBiT-BRD4 HEK293 cells; for EC50: HiBiT-BRD4 CRISPR knock-in HEK293 cells, live cell kinetic degradation, 24 h, read-out: Dmax 50 BRD4. In kind it is cell-based. How it is done:
(§3) HEK293 HiBiT-BRD2 (LgBiT stable), HEK293 HiBiT-BRD3 (LgBiT stable), and HEK293 HiBiT-BRD4 (LgBiT stable) were created using CRISPR/Cas9 to insert at HiBiT tag at the N-terminal genomic loci of BRD2, BRD3, or BRD4 in a cell line stably expressing LgBiT protein as described previously.[23]
(§4) For kinetic degradation experiments, HEK293 HiBiT-BRD2, 3, or 4 (LgBiT stable) cells and HEK293 HiBiT-BRD4 (LgBiT) CRBN KO and VHL KO cells were plated at 20,000 cells/well in DMEM +10% FBS in white 96-well tissue culture plates and allowed to adhere overnight. The next day, media was removed and 90 μL of prewarmed CO2-independent medium (Gibco) containing Endurazine (Promega) at a 1:100 dilution from stock was added. Plates were incubated at 37 °C for 3 h to allow luminescence to equilibrate. A threefold dilution series of each PROTAC at 10x the desired final concentration was prepared (with the amount of DMSO in each treatment condition kept constant). After luminescence equilibration, a preread luminescence measurement was taken (prior to compound addition) to allow for baseline normalization to account for possible plating differences. Cells were then treated with 10 μL of the prepared PROTAC dilution series (in triplicate or quadruplicate). Treated plates were placed in a GloMax Discover luminometer (Promega) prewarmed to 37 °C and luminescence measurements were obtained every 7 min for 24 h. Kinetic degradation plots were obtained by first normalizing time course luminescence readings in each well to the preread measurement, then to the average value of the DMSO only control at each time point. Data was analyzed using GraphPad Prism (version 8) and excel. Dmax values were identified as the lowest luminescence reading in each well. Rate constant values were calculated using a one phase exponential decay Y = (Y0-Plateau) e(K*^X) + Plateau using Prism (Y0 constrained to 1). Dmax 50 values were calculated by plotting Dmax as a function of concentration, then fitting plots using the following equation: [drawing 1] to determine IC50.
HiBiT-BRD4 (LgBiT stable) HEK293 cells (Promega) were used to generate both VHL KO HiBiT-BRD4 (LgBiT stable) and CRBN KO HiBiT-BRD4 (LgBiT stable) cell lines. For VHL, gRNAs targeting exon 1 ([…]) and exon 2 ([…]) and for CRBN, gRNAs targeting exon 3 ([…]) and exon 6 ([…]) were purchased from IDT DNA (Table 5). For each gRNA, tracrRNA/crRNA duplexes were formed by combining 10 μL of 100 μM Alt-R […] (IDT), 100 μM Alt-R crRNA (IDT) and heating at 95C for 5 min, then were allowed to cool to room temp for 20 min. RNPs were then formed by combining 75 pmol Cas9 (IDT) with 2.4 μL total of prepared tracrRNA/crRNA complex (1.2 μL for each gRNA targeting each exon). Cells were then trypsinized and resuspended at 10,000,000 cells/mL in 1 mL of Mirus Ingenio electroporation solution. Three μL of 100 μM electroporation enhancer (Mirus) was added, along with 3 μL of RNP solution. Cells were electroporated in 2 mm cuvettes using a BioRad system (190 V, 950 μF, infinite resistance) and were then plated in a T75 flask in full growth medium to allow for recovery. After recovery from electroporation, knockout pools were sorted for single cells in 96-well tissue culture treated plates. Clonal populations which expanded from single cells were then screened for loss of function of VHL by treating with MZ1, or loss of function of CRBN by treating with dBET6, using a HiBiT-BRD4 luminescent readout assay. Genomic DNA isolated from candidate clones was then PCR-amplified (Table of primers below), Gibson-assembled into a pF1A plasmid backbone, transformed into E. coli., and then Sanger sequenced to confirm presence of indels in the targeted exons. […] VHL exon 3 carried a 19 bp deletion on one allele, and a 1 bp insertion on the other allele, both occurring after the premature stop codon in exon 1.

For a further test, the target named is T1, BRD3 (Homo sapiens, UniProt Q15059).
T1 construct: HiBiT, is appended to the N-terminus of endogenous BRD2, BRD3, and BRD4; endogenous in cells
T1 sequence (Q15059 whole entry): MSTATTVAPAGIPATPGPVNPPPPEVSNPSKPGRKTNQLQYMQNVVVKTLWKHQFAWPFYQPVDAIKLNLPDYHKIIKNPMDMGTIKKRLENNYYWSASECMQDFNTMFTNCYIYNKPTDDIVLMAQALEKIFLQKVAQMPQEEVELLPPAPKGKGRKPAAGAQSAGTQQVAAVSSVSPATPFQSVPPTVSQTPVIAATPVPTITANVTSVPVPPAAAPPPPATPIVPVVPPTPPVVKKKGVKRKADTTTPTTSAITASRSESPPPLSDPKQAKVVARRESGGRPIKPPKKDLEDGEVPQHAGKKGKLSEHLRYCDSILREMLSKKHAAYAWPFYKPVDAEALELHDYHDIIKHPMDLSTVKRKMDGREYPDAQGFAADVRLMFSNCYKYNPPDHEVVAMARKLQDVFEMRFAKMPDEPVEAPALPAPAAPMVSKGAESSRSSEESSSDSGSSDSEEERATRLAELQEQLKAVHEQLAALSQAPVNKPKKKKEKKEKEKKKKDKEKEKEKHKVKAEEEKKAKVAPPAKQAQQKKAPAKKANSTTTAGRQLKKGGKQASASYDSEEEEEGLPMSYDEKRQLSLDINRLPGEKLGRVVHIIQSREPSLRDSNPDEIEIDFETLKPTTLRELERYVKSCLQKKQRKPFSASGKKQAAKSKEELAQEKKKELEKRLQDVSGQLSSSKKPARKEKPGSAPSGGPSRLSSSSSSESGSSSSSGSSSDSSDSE
Briefly: Live cell kinetic HiBiT degradation assay, HiBiT-BRD3 HEK293 cells. It counts as cell-based. Particulars: HiBiT-BRD3 CRISPR knock-in HEK293 cells, live cell kinetic degradation, 24 h; read-out: Dmax 50 BRD3. The protocol: as §3, §4

In another test the target is T2, BRD2 (Homo sapiens, UniProt P25440).
T2 construct: HiBiT, is appended to the N-terminus of endogenous BRD2, BRD3, and BRD4; endogenous in cells
T2 sequence (P25440 whole entry): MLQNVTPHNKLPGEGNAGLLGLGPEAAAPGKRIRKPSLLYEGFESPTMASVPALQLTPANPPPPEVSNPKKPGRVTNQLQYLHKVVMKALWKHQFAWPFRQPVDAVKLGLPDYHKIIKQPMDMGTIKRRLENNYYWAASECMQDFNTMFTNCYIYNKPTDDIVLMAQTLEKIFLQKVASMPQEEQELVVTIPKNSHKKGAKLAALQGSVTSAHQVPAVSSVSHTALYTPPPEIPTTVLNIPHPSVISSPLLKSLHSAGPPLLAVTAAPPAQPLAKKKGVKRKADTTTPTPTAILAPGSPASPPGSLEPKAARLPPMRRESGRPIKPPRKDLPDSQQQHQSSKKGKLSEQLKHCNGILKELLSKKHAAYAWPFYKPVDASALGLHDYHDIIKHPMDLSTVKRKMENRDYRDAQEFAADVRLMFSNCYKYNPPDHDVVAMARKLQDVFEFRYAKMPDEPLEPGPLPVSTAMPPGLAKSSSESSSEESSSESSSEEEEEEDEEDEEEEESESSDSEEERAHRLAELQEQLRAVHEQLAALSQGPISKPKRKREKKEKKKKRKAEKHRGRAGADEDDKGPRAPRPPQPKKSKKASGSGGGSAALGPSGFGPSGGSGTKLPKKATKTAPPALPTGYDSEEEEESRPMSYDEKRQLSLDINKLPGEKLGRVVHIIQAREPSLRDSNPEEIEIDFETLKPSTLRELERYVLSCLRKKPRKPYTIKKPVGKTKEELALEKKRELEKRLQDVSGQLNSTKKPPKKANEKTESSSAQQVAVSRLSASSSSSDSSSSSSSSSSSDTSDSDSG
Briefly: Live cell kinetic HiBiT degradation assay, HiBiT-BRD2 HEK293 cells. In kind it is cell-based. As to conditions: HiBiT-BRD2 CRISPR knock-in HEK293 cells, live cell kinetic degradation, 24 h; read-out: Dmax 50 BRD2. How it is done: as §3, §4

The next test relates to K562 cells. In words: Cell viability assay (CellTiter-Glo). It counts as cell-based, human. Particulars: WT K562, 5.12 pM to 10 uM, n = 3 (Table S4). The protocol: as §2, with “[…],” for “3750 cells per well and treated for 3 days with DMSO or drug at ten √10 serial diluted concentrations. Starting concentration for all drugs was 10 μM,”
In another test the test system is KBM7 cells. In words: Cell viability assay (CellTiter-Glo). In kind it is cell-based, human. Particulars: WT KBM7, 5.12 pM to 10 uM, n = 3 (Table S4). How it is done: as §2, with “[…],” for “3750 cells per well and treated for 3 days with DMSO or drug at ten √10 serial diluted concentrations. Starting concentration for all drugs was 10 μM,”
Setting [1] is: Homo sapiens, 72 h, 316 pM to 10 μM, 3 days, n = 6 (Figure 3C, Table S1), read-out: EC50 RKO WT.
[2] abbreviates: Homo sapiens, 72 h, 316 pM to 10 μM, 3 days, n = 6 (Figure 3C, Table S1).

Read-outs that look alike come from different tables or passages of the source.

Consider `Cc1ncsc1-c1ccc(CNC(=O)[C@@H]2C[C@@H](O)CN2C(=O)[C@@H](NC(=O)COCC(C)(COCCOCCOCCNC(=O)C[C@@H]2N=C(c3ccc(Cl)cc3)c3c(sc(C)c3C)-n3c(C)nnc32)COCCOCCOCCNc2cccc3c2C(=O)N(C2CCC(=O)NC2=O)C3=O)C(C)(C)C)cc1` (stereo partly drawn) [MN666 (1), (2S,4R)-1-((20S)-20-(tert-Butyl)-1-((S)-4-(4-chlorophenyl)-2,3,9-trimethyl-6H-thieno[3,2-f][1,2,4]triazolo[4,3-a][1,4]diazepin-6-yl)-14-((2-(2-(2-((2-(2,6-dioxopiperidin-3-yl)-1,3-dioxoisoindolin-4-yl)amino)ethoxy)ethoxy)ethoxy)methyl)-14-methyl-2,18-dioxo-6,9,12,16-tetraoxa-3,19-diazahenicosan-21-oyl)-4-hydroxy-N-(4-(4-methylthiazol-5-yl)benzyl)pyrrolidine-2-carboxamide], for which the EC50 with RKO WT cells (setting [1]) worked out at 720 nM; in the test on RKO CRBN/VHL dKO cells (setting [2]), 1580 nM; in the test with RKO VHL KO cells (setting [2]), 336 nM; in the test on RKO CRBN KO cells (setting [2]) it was 703 nM; at BRD4, 37 nM. For the same compound, the “fold drop in BRD4 degradation potency (Dmax 50) when CRBN recruitment was outcompeted by pomalidomide” value on BRD4 is listed as 5.3 fold. Moreover, the DC50 worked out at 23 nM at BRD3 and 84 nM at BRD2.
Take `Cc1ncsc1-c1ccc(CNC(=O)[C@@H]2C[C@@H](O)CN2C(=O)[C@@H](NC(=O)COCC(C)(COCCOCCNC(=O)C[C@@H]2N=C(c3ccc(Cl)cc3)c3c(sc(C)c3C)-n3c(C)nnc32)COCCOCCNc2cccc3c2C(=O)N(C2CCC(=O)NC2=O)C3=O)C(C)(C)C)cc1` (stereo partly drawn) [MN675 (2), (2S,4R)-1-((17S)-17-(tert-Butyl)-1-((S)-4-(4-chlorophenyl)-2,3,9-trimethyl-6H-thieno[3,2-f][1,2,4]triazolo[4,3-a][1,4]diazepin-6-yl)-11-((2-(2-((2-(2,6-dioxopiperidin-3-yl)-1,3-dioxoisoindolin-4-yl)amino)ethoxy)ethoxy)methyl)-11-methyl-2,15-dioxo-6,9,13-trioxa-3,16-diazaoctadecan-18-oyl)-4-hydroxy-N-(4-(4-methylthiazol-5-yl)benzyl)pyrrolidine-2-carboxamide]: the EC50 was determined as 489 nM in the test on RKO WT cells (setting [1]); 445 nM in the test with RKO WT cells (Homo sapiens, WT RKO, 316 pM to 10 μM, n = 3 (Table S4), read-out: EC50 RKO); 2060 nM with RKO CRBN/VHL dKO cells (setting [2]); 870 nM in the test with RKO VHL KO cells (setting [2]); 601 nM in the test on RKO CRBN KO cells (setting [2]); 55 nM at BRD4. In addition, the EC50 in the test with K562 cells (Homo sapiens) stood at 327 nM; in the test on KBM7 cells (Homo sapiens, KBM-7) it was 175 nM. Moreover, the “fold drop in BRD4 degradation potency (Dmax 50) when CRBN recruitment was outcompeted by pomalidomide” value at BRD4 is recorded as 3.6 fold. The DC50 on BRD3 was 21 nM; at BRD2, 156 nM.
With `Cc1sc2c(c1C)C(c1ccc(Cl)cc1)=N[C@@H](CC(=O)NCCCCCCCCNC(=O)COc1cccc3c1C(=O)N(C1CCC(=O)NC1=O)C3=O)c1nnc(C)n1-2` (some centres unmarked) [dBET6, reference compound], the EC50 in the test on RKO WT cells (316 pM to 10 μM, 3 days, n = 6 (Figure 3C, Table S1), read-out: EC50 RKO WT) is 281 nM; with RKO WT cells (500 pM to 10 μM, 3 days (Figure 10, Table S6), read-out: EC50 RKO WT), 256 nM; in the test with RKO WT cells (RKO WT, 316 pM to 10 μM, n = 6, combination: dBET6 and MZ1 each from 5 μM (Table S7), read-out: EC50 RKO) it was 106 nM; in the test with RKO WT cells (WT RKO, 316 pM to 10 μM, n = 3 (Table S4), read-out: EC50 RKO), 272 nM; in the test with RKO CRBN/VHL dKO cells (both VHL and CRBN knocked out (Figure 3C)), more than 10000 nM; in the test on RKO VHL KO cells (316 pM to 10 μM, 3 days, n = 6 (Figure 3C, Table S1)) it was 233 nM. Moreover, the EC50 with RKO VHL KO cells (500 pM to 10 μM, 3 days (Figure 10, Table S6)) is 291 nM; in the test on RKO CRBN KO cells (Figure 10 experiment) it was more than 10000 nM; with K562 cells it was 6.4 nM; in the test with KBM7 cells, 3.7 nM.
